Measurements taken from publication PMC10122656, “Siglec-6 mediates the uptake of extracellular vesicles through a noncanonical glycolipid binding pocket” (Nature Communications, 2023).
Values joined by “and” are separate entries in the source; they are usually repeats but may differ in a detail not shown here. Equal values may be shown once.

Tests used:
Assay in all cases: Cell assay (liposome/EV binding, flow cytometry);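 also: AF647 fluorescence intensity from 0.1 mol% AF647–PEG45–DSPE in liposomes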
Assay type in all cases: cell-based
[1] = target: T1, CHO cells expressing Siglec-6 mutants (C46A, C172A, R to A mutants, F93A, L95A, G175M) (Homo sapiens, UniProt O43699, C172A); conditions: sheet Figure S26a, 3% GM3-DAG liposomes, C172A
T1 construct: These new CHO cell lines are the full-length versions of the Siglecs; expressed in transfected cells
T1 sequence (O43699 27-453 C172A): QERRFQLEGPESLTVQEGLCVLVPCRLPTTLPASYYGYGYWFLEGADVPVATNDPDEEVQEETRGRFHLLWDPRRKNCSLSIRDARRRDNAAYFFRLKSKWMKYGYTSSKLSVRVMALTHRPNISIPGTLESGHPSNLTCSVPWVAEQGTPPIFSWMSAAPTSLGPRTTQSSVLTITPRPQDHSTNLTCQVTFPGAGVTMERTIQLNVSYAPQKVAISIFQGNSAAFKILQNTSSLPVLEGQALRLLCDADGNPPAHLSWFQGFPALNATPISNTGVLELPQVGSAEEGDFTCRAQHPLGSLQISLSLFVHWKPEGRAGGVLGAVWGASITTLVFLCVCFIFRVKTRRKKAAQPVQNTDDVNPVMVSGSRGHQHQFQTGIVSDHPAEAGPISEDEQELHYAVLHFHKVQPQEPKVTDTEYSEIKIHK
Method: (§1) Mutations were introduced into each Siglec via gene overlap extension PCR mutagenesis (primers were ordered through IDT). Mutagenesis primers can be found in Supplementary Tables 2 and 3 for the critical arginine mutants of the entire Siglec family and the additional Siglec-6 mutants respectively.
(§2) 200,000 cells/well were plated into a 96-well U-bottom microplate and centrifuged at 300 × g for 5 min. The cells were then resuspended in 50 µL of 50 µM liposome/50 µg/mL (protein concentration) of EV solution in DMEM F12 5% FBS and incubated at 37 °C for 30 min. Excess liposomes were then removed via centrifuged at 300 × g for 5 min followed by washing the cells with FACS solution. The cells were then resuspended in (1:250 V/V) anti-Siglec-flow buffer (1% V/V FBS, 500 µM, EDTA Hank’s Balanced Salt Solution pH 7.4), solution and left to rest on ice for 30 min. The cells were then centrifuged again at 300 × g for 5 min and the cells were resuspended in FACS buffer solution and were then ready for analysis by flow cytometry. Information regarding antibody clone, catalog number supplier, label isotype, and dilution can be found in Supplementary Table 6. The Siglec-positive cells were gated on for liposome-binding analysis (Supplementary Fig. 1b).
(§3) Flow cytometry measurements were collected on a 5-laser Fortessa X-20 (BD Bioscience). All the resulting data were analyzed using FlowJo (10.5.3) software (BD Biosciences).

[2] = target: T2, CHO cells expressing Siglec-6 mutants (C46A, C172A, R to A mutants, F93A, L95A, G175M) (Homo sapiens, UniProt O43699, C46A); conditions: sheet Figure S26a, 3% GM3-DAG liposomes, C46A
T2 construct: These new CHO cell lines are the full-length versions of the Siglecs; expressed in transfected cells
T2 sequence (O43699 27-453 C46A): as the sequence (O43699 27-453 C172A) above, with C20A, A146C counted along it
Method: as §1, §2, §3

[3] = target: T3, CHO cells expressing Siglec-6 mutants (C46A, C172A, R to A mutants, F93A, L95A, G175M) (Homo sapiens, UniProt O43699, E173A); conditions: sheet Figure S28b, 3% GM3-DAG liposomes, E173A
T3 construct: These new CHO cell lines are the full-length versions of the Siglecs; expressed in transfected cells
T3 sequence (O43699 27-453 E173A): as the sequence (O43699 27-453 C172A) above, with A146C, E147A counted along it
Method: as §1, §2, §3

[4] = target: T4, CHO cells expressing Siglec-6 mutants (C46A, C172A, R to A mutants, F93A, L95A, G175M) (Homo sapiens, UniProt O43699, E87A); conditions: sheet Figure S28b, 3% GM3-DAG liposomes, E87A
T4 construct: These new CHO cell lines are the full-length versions of the Siglecs; expressed in transfected cells
T4 sequence (O43699 27-453 E87A): as the sequence (O43699 27-453 C172A) above, with E61A, A146C counted along it
Method: as §1, §2, §3

[5] = target: T5, CHO cells expressing Siglec-6 mutants (C46A, C172A, R to A mutants, F93A, L95A, G175M) (Homo sapiens, UniProt O43699, E88A); conditions: sheet Figure S28b, 3% GM3-DAG liposomes, E88A
T5 construct: These new CHO cell lines are the full-length versions of the Siglecs; expressed in transfected cells
T5 sequence (O43699 27-453 E88A): as the sequence (O43699 27-453 C172A) above, with E62A, A146C counted along it
Method: as §1, §2, §3

[6] = target: T6, CHO cells expressing Siglec-6 mutants (C46A, C172A, R to A mutants, F93A, L95A, G175M) (Homo sapiens, UniProt O43699, G175M); conditions: sheet Figure S28b, 3% GM3-DAG liposomes, G175M
T6 construct: These new CHO cell lines are the full-length versions of the Siglecs; expressed in transfected cells
T6 sequence (O43699 27-453 G175M): as the sequence (O43699 27-453 C172A) above, with A146C, G149M counted along it
Method: as §1, §2, §3

[7] = target: T7, CHO cells expressing Siglec-6 mutants (C46A, C172A, R to A mutants, F93A, L95A, G175M) (Homo sapiens, UniProt O43699, L95A); conditions: sheet Figure S28b, 3% GM3-DAG liposomes, L95A
T7 construct: These new CHO cell lines are the full-length versions of the Siglecs; expressed in transfected cells
T7 sequence (O43699 27-453 L95A): as the sequence (O43699 27-453 C172A) above, with L69A, A146C counted along it
Method: as §1, §2, §3

[8] = target: T8, CHO cells expressing Siglec-6 mutants (C46A, C172A, R to A mutants, F93A, L95A, G175M) (Homo sapiens, UniProt O43699, Q174A); conditions: sheet Figure S28b, 3% GM3-DAG liposomes, Q174A
T8 construct: These new CHO cell lines are the full-length versions of the Siglecs; expressed in transfected cells
T8 sequence (O43699 27-453 Q174A): as the sequence (O43699 27-453 C172A) above, with A146C, Q148A counted along it
Method: as §1, §2, §3

[9] = target: T9, CHO cells expressing Siglec-6 mutants (C46A, C172A, R to A mutants, F93A, L95A, G175M) (Homo sapiens, UniProt O43699, R101A); conditions: sheet Figure S26a, 3% GM3-DAG liposomes, R101A
T9 construct: These new CHO cell lines are the full-length versions of the Siglecs; expressed in transfected cells
T9 sequence (O43699 27-453 R101A): as the sequence (O43699 27-453 C172A) above, with R75A, A146C counted along it
Method: as §1, §2, §3

[10] = target: T10, CHO cells expressing Siglec-6 mutants (C46A, C172A, R to A mutants, F93A, L95A, G175M) (Homo sapiens, UniProt O43699, R109A); conditions: sheet Figure S26a, 3% GM3-DAG liposomes, R109A
T10 construct: These new CHO cell lines are the full-length versions of the Siglecs; expressed in transfected cells
T10 sequence (O43699 27-453 R109A): as the sequence (O43699 27-453 C172A) above, with R83A, A146C counted along it
Method: as §1, §2, §3

[11] = target: T11, CHO cells expressing Siglec-6 mutants (C46A, C172A, R to A mutants, F93A, L95A, G175M) (Homo sapiens, UniProt O43699, R112A); conditions: sheet Figure S26a, 3% GM3-DAG liposomes, R112A
T11 construct: These new CHO cell lines are the full-length versions of the Siglecs; expressed in transfected cells
T11 sequence (O43699 27-453 R112A): as the sequence (O43699 27-453 C172A) above, with R86A, A146C counted along it
Method: as §1, §2, §3

[12] = target: T12, CHO cells expressing Siglec-6 mutants (C46A, C172A, R to A mutants, F93A, L95A, G175M) (Homo sapiens, UniProt O43699, R113A); conditions: sheet Figure S26a, 3% GM3-DAG liposomes, R113A
T12 construct: These new CHO cell lines are the full-length versions of the Siglecs; expressed in transfected cells
T12 sequence (O43699 27-453 R113A): as the sequence (O43699 27-453 C172A) above, with R87A, A146C counted along it
Method: as §1, §2, §3

[13] = target: T13, CHO cells expressing Siglec-6 mutants (C46A, C172A, R to A mutants, F93A, L95A, G175M) (Homo sapiens, UniProt O43699, R114A); conditions: sheet Figure S26a, 3% GM3-DAG liposomes, R114A
T13 construct: These new CHO cell lines are the full-length versions of the Siglecs; expressed in transfected cells
T13 sequence (O43699 27-453 R114A): as the sequence (O43699 27-453 C172A) above, with R88A, A146C counted along it
Method: as §1, §2, §3

[14] = target: T14, CHO cells expressing Siglec-6 mutants (C46A, C172A, R to A mutants, F93A, L95A, G175M) (Homo sapiens, UniProt O43699, R147A); conditions: sheet Figure S26a, 3% GM3-DAG liposomes, R147A
T14 construct: These new CHO cell lines are the full-length versions of the Siglecs; expressed in transfected cells
T14 sequence (O43699 27-453 R147A): as the sequence (O43699 27-453 C172A) above, with R121A, A146C counted along it
Method: as §1, §2, §3

[15] = target: T15, CHO cells expressing Siglec-6 mutants (C46A, C172A, R to A mutants, F93A, L95A, G175M) (Homo sapiens, UniProt O43699, R90A); conditions: sheet Figure S26a, 3% GM3-DAG liposomes, R90A
T15 construct: These new CHO cell lines are the full-length versions of the Siglecs; expressed in transfected cells
T15 sequence (O43699 27-453 R90A): as the sequence (O43699 27-453 C172A) above, with R64A, A146C counted along it
Method: as §1, §2, §3

[16] = target: T16, CHO cells expressing Siglec-6 mutants (C46A, C172A, R to A mutants, F93A, L95A, G175M) (Homo sapiens, UniProt O43699, R92A); conditions: sheet Figure S26a, 3% GM3-DAG liposomes, R92A
T16 construct: These new CHO cell lines are the full-length versions of the Siglecs; expressed in transfected cells
T16 sequence (O43699 27-453 R92A): as the sequence (O43699 27-453 C172A) above, with R66A, A146C counted along it
Method: as §1, §2, §3

Structure (SMILES): CCCCCCCCCCCCCCCCOCC(COCCCCCCCCCCCCCCCC)OCc1cn(CCO[C@@H]2O[C@H](CO)[C@@H](O[C@@H]3O[C@H](CO)[C@H](O)[C@H](O[C@]4(C(=O)O)C[C@H](O)[C@@H](NC(C)=O)[C@H]([C@H](O)[C@H](O)CO)O4)[C@H]3O)[C@H](O)[C@H]2O)nn1 [GM3-DAG]
- liposome binding, fluorescence signal (replicates) [1]: 837 and 738 and 839 and 676
- liposome binding, fluorescence signal (replicates) [2]: 789 and 784 and 873 and 937
- liposome binding, fluorescence signal (replicates) [3]: 1703 and 1773 and 1881 and 1652
- liposome binding, fluorescence signal (replicates) [4]: 2391 and 2152 and 2127
- liposome binding, fluorescence signal (replicates) [5]: 2063 and 2173 and 2053
- liposome binding, fluorescence signal (replicates) [6]: 928 and 1026 and 962 and 868
- liposome binding, fluorescence signal (replicates) [7]: 497 and 522 and 557 and 567
- liposome binding, fluorescence signal (replicates) [8]: 1364 and 1584 and 1412
- liposome binding, fluorescence signal (replicates) [9]: 5191 and 3671 and 4272 and 5125
- liposome binding, fluorescence signal (replicates) [10]: 3678 and 3427 and 3246 and 4185
- liposome binding, fluorescence signal (replicates) [11]: 4575 and 4566 and 3393 and 4882
- liposome binding, fluorescence signal (replicates) [12]: 4924 and 3926 and 3532 and 5592
- liposome binding, fluorescence signal (replicates) [13]: 3286 and 2523 and 2193 and 4407
- liposome binding, fluorescence signal (replicates) [14]: 10179 and 9364 and 9449 and 10723
- liposome binding, fluorescence signal (replicates) [15]: 6321 and 6067 and 6474 and 6517
- liposome binding, fluorescence signal (replicates) [16]: 242 and 228 and 244 and 252
